Measured values reported in PMC9231303, “Pharmacokinetic–Pharmacometabolomic Approach in Early-Phase Clinical Trials: A Way Forward for Targeted Therapy in Type 2 Diabetes” (Pharmaceutics, 2022).
Several values for one entry are separate records, joined by “and”; a condition that tells them apart may be missing. Equal entries are not always repeated. Entries after “also recorded” stand apart in the source; their conditions may differ. Where two headings read alike, the source gives them in different places.

Legend:
[1] = tested on: human metabolic pathways (KEGG); assay: Untargeted plasma pharmacometabolomics dataset A (pre-dose versus T2.5, 3, 3.5 h, n = 6), mummichog functional pathway analysis; conditions: time course 0–12 h
clinical = conditions: human, in vivo
[2] = cited from earlier work
[3] = tested on: human metabolic pathways (KEGG); assay: Untargeted urine pharmacometabolomics (pre-dose U0 versus U1 0–4 h, U2 4–8 h, U3 8–12 h, n = 6), mummichog functional pathway analysis; format: in vivo; conditions: urine collections 0–12 h
[4] = Clinical safety, adverse event and glucose monitoring after single-dose metformin 1000 mg in healthy subjects; format: in vivo, human
Description: Three cohorts were planned to ensure sufficient clinical ward staff and space to monitor every subject on the dosing day. Subjects were housed in a controlled environment, and standardized meals were provided to each cohort. The blood samples were collected using an ethylenediaminetetraacetic acid (EDTA) tube and centrifuged at 10,000 rpm for 10 min at 4. The plasma samples together with the urine samples were kept in a -80 °C freezer in cryovials for further analysis. The subjects were monitored for adverse events until seven days post-dose. Pre-dose and peak-concentration plasma samples were used for untargeted pharmacometabolomic analysis to determine the treatment metabotypes.

With `CN(C)C(=N)N=C(N)N` [metformin] the “metformin intensity in plasma (untargeted LCMS, positive mode)” value [1] was “a reducing trend happened at 8 h and a return to zero at 12 h”, the Tmax (male, human, in vivo) was 3 h and the T_max (male, human, in vivo, po) was 2.5 (2.5–3.0) h. For the same compound, the CL (male, human, in vivo, po, 1000 mg) was 1884 (32.3) mL/min, the Tmax (subject S6) was 2 h and the Tmax (subject S8) was 3.5 h and 2 h. It also gave a Cmax (subject S10) of 1391.3 ng/mL, a Tmax (subject S15) of 4 h and a Tmax (subject S16) of 2 h. It also gave a Cmax (subject S17) of 1381.7 ng/mL, a Tmax (subject S17) of 4 h and a Cmax (clinical; 1000 mg, subject S4) of 1430 ng/mL. It also gave a Cmax (clinical; 1000 mg, subject S9) of 1170 ng/mL, a Tmax (clinical; male) of 2.65 h and an AUC(0-t) (clinical; male, 1000 mg) of 10900 ng·h/mL. The k el (clinical; male, Ke) was 3.97e-05 s⁻¹, the AUC (clinical; male, po, 1000 mg) was 9510 ng·h/mL and the AUC(0-t) (clinical; male, po, 1000 mg, AUC_0–24) was 8960 ng·h/mL. The peak plasma concentration ([2]; diabetic patients, 1000 mg twice daily chronically) was “approximately 40 µM”, the “plasma concentration reached within three hours” value ([2]; oral 1000 mg, non-diabetic subjects) was 25 µM and the “metformin in urine (untargeted LCMS, positive mode)” value [3] was “achieved high concentration in the first 8 h and a slight reduction during 8–12 h”. For the same compound, the Glucose ([4]; 4 hours post-dose (before lunch), mean of 17 subjects) was 4.7 mmol/L, the Glucose ([4]; 4 hours post-dose, subject S01) was 5.0 mmol/L and the Glucose ([4]; 4 hours post-dose, subject S02) was 4.7 mmol/L. The Glucose ([4]; 4 hours post-dose, subject S04) was 4.8 mmol/L, the Glucose ([4]; 4 hours post-dose, subject S05) was 5.2 mmol/L and the Glucose ([4]; 4 hours post-dose, subject S06) was 4.6 mmol/L. The Glucose ([4]; 4 hours post-dose, subject S07) was 4.7 mmol/L, the Glucose ([4]; 4 hours post-dose, subject S08) was 4.3 mmol/L and the Glucose ([4]; 4 hours post-dose, subject S09) was 4.4 mmol/L. The Glucose ([4]; 4 hours post-dose, subject S10) was 4.9 mmol/L, the Glucose ([4]; 4 hours post-dose, subject S11) was 4.7 mmol/L and the Glucose ([4]; 4 hours post-dose, subject S12) was 5.2 mmol/L. For the same compound, the Glucose ([4]; 4 hours post-dose, subject S13) was 4.4 mmol/L, the Glucose ([4]; 4 hours post-dose, subject S14) was 4.7 mmol/L and the Glucose ([4]; 4 hours post-dose, subject S15) was 4.4 mmol/L. For the same compound, the Glucose ([4]; 4 hours post-dose, subject S16) was 4.9 mmol/L, the Glucose ([4]; 4 hours post-dose, subject S17) was 4.6 mmol/L and the Glucose ([4]; 4 hours post-dose, subject S18) was 3.9 mmol/L. For the same compound, the clinical laboratory characteristics ([4]; screening versus follow-up, clinician judgement) was “within normal range and considered no significant changes” and the adverse drug reaction ([4]; single dose 1000 mg, 17 healthy subjects, monitored until seven days post-dose) was “One subject experienced abdominal pain after the dosing; also recorded: stomach cramps; also recorded: one side effect was observed”.
